Test results from patent publication US20130149721A1, “Methods for Inhibiting Amyloid Precursor Protein and Beta-Amyloid Production and Accumulation” (WISCONSIN ALUMNI RESEARCH FOUNDATION, priority 2008, published 2013).

Experiments:
APP translation in SN = assay: 35S-Met labeling and immunoprecipitation of newly synthesized APP in synaptoneurosomes; format: cell-based, mouse; settings: WT SN, 40 μM anisomycin + 100 μM DHPG, 15 min
Protocol: WT and KO SNs (450 μl) were mixed with 25 μl Redivue Pro-Mix-L [^35S] for 5 min prior to stimulation with 25 μl 2 mM DHPG. Samples were flash frozen at the indicated times. To analyze new protein synthesis, SN lysates were cleared of free isotope, Percoll®, and sucrose by purification with the PAGEprep Advance kit according to the manufacturer's directions. Protein concentrations were determined by the BCA assay, and 15 μg protein was denatured and loaded per lane on 12% SDS gels for content analysis. Gels were dried and exposed to a phosphorimager screen to identify the results of these assays.
To specifically analyze APP synthesis, WT and KO SN lysates (500 μl) were immunoprecipitated with APP antibody. Briefly, SN lysates were precleared with protein A magnetic beads in 1 ml volumes containing 500 μl SNs, 500 μl 2×IP buffer (20 mM HEPES (pH 7.4), 400 mM NaCl, 60 mM EDTA (pH 8), and 2% Triton X-100), protease inhibitor cocktail, and 100 μl packed fresh protein A magnetic beads. For the immunoprecipitations, 10 μg anti-APP antibody (Zymed catalog number 51-2700) and fresh protein A magnetic beads were added and mixed overnight at 4° C. The beads were washed three times with IP buffer, and the final, washed pellets were suspended in 40 μl 2×SDS sample buffer and boiled for 5 min; the proteins were then separated on 12% SDS gels. The gels were transferred to a nitrocelluose membrane, dried, exposed to a phosphorimager screen, and scanned on a STORM 860 phosphorimager (Molecular Dynamics http://www6.amershambiosciences.com). APP bands at 120 kDa were quantitated with ImageQuant software (GE Healthcare Life Sciences, http://www4.amershambiosciences.com).
For mGluR5 inhibitor studies, SNs (425 μl) were preincubated with 25 μl anisomycin (40 μM final concentration) or MPEP (10 μM final concentration) for 10 min prior to the addition of 25 μl ^35S-Met for 5 min and stimulation with DHPG (100 μM final concentration) for 15 min. Samples were processed as described in the preceding paragraph.
To further assess FMRP regulation of APP levels in brain, cortical SN were prepared from WT mice and overall protein synthesis analyzed in response to DHPG (100 μM)-induced mGluR5 activation. SN were metabolically active as assessed by ^35S-Met incorporation. […]
These conclusions were tested by assessing the effects on APP translation of contacting SN with a group 1 mGluR5 antagonist, 2-methyl-6-(phenylethynyl)-pyridine (MPEP). […] To assess the effect of MPEP, a specific mGluR5 antagonist, on DHPG stimulation of de novo APP synthesis, SN were pre-treated with 10 μM MPEP for 10 min prior to the addition of ^35S-Met for 5 min and stimulation with 100 μM DHPG for 15 min. ^35S-Met-labeled APP was immunoprecipitated with anti-APP antibodies and analyzed by SDS-PAGE. […]

[1] = Tolerability of fenobam-supplemented diet in Tg2576 mice; format: in vivo
Excerpt: (§1) Mice were fed a fenobam-supplemented mouse food that was a purified ingredient diet formulated by Research Diets, Inc. (New Brunswick, N.J.) to match Purina 5015 lab diet in protein, carbohydrate and fat calories. For chronic dosing, the diet was supplemented with 0.2 g fenobam per kg lab diet and colored red for visual differentiation with the placebo food.

rat mGluR8a = rat mGluR8a (Rattus norvegicus, UniProt P70579); settings: doses up to 10 μm; cited from earlier work
Chain of rat mGluR8a (P70579 34-908): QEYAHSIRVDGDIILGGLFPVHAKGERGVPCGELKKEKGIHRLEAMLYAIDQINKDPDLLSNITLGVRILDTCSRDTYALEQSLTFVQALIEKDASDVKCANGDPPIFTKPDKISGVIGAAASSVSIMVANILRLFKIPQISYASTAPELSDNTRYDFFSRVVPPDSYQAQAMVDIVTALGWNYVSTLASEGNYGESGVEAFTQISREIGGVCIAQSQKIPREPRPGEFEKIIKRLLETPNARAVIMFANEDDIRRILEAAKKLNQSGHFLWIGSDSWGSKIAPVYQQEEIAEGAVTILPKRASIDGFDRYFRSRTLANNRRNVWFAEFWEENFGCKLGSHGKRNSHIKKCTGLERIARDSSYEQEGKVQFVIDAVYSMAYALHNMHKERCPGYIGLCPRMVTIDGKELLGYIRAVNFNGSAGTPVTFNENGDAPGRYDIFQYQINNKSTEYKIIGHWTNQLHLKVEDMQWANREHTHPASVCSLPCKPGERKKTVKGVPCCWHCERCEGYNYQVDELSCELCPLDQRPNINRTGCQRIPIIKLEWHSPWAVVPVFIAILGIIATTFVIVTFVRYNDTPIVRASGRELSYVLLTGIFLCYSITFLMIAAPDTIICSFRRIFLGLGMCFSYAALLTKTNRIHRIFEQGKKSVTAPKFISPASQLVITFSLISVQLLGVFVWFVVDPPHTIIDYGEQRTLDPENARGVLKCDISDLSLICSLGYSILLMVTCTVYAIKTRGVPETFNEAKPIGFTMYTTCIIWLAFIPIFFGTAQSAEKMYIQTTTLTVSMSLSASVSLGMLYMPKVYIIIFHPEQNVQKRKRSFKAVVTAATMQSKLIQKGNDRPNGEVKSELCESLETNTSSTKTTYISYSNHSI

anxiety in humans = settings: cited from earlier work
[2] = humans, cited from earlier work
rat mGluR2 = rat mGluR2 (Rattus norvegicus, UniProt P31421); settings: doses up to 10 μm; cited from earlier work
Chain of rat mGluR2 (P31421 19-872): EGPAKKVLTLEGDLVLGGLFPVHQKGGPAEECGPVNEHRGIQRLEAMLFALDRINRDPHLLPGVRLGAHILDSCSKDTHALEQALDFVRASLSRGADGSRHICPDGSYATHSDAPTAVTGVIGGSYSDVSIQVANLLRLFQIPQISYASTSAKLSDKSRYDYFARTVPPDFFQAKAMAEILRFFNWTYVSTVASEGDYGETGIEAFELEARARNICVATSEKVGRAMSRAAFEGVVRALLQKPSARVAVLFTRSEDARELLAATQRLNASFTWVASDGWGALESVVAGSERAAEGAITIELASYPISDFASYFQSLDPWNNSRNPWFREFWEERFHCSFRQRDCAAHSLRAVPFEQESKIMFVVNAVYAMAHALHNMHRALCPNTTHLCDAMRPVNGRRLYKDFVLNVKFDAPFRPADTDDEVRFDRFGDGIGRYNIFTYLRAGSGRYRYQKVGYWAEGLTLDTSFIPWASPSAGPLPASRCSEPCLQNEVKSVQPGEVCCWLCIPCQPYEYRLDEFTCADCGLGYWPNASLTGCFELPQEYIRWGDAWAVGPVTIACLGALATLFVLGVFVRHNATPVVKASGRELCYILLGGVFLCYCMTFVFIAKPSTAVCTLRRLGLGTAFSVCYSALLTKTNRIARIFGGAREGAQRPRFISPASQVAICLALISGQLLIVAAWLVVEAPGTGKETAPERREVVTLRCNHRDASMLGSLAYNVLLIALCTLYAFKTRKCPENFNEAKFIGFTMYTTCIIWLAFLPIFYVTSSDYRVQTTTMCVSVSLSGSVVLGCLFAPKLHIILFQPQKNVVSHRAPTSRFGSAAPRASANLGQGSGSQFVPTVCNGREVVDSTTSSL

anxiety in mice = settings: cited from earlier work
anxiety in rats = settings: cited from earlier work
mGluR5 = mGluR5 (Homo sapiens, UniProt P41594); settings: shared allosteric modulatory site; cited from earlier work
Chain of mGluR5 (P41594 21-1212): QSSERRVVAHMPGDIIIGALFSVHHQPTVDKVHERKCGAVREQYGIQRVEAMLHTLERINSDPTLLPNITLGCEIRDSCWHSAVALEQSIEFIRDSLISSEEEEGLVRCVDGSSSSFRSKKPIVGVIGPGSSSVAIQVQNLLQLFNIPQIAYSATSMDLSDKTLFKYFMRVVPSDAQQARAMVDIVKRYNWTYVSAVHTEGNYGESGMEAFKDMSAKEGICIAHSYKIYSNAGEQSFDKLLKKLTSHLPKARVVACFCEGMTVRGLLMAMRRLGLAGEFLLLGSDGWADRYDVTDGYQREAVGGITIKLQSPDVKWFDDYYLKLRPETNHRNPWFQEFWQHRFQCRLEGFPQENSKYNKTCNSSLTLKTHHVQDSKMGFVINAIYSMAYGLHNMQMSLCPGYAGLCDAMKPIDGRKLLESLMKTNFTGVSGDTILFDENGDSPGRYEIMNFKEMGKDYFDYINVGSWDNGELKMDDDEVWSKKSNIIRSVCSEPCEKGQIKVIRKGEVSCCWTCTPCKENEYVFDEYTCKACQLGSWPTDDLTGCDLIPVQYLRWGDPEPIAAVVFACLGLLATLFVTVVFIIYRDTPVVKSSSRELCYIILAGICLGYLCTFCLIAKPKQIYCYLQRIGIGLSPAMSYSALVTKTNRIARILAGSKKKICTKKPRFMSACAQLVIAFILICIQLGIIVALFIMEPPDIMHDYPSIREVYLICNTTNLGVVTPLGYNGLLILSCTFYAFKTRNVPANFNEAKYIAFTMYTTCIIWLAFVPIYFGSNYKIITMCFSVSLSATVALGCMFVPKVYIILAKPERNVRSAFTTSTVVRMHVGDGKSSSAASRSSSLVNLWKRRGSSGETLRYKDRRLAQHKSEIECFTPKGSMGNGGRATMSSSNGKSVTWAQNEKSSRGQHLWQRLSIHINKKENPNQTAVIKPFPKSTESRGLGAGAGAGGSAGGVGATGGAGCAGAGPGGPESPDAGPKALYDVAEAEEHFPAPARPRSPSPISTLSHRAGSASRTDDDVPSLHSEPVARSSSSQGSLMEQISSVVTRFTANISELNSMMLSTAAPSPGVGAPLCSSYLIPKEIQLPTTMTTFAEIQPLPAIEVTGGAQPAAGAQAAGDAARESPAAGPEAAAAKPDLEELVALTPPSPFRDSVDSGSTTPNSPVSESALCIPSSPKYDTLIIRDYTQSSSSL

[3] = tested on: Aβ1-40 and Aβ1-42 in Tg2576 mouse brain; assay: Brain Aβ ELISA after chronic fenobam-supplemented diet in Tg2576 mice; settings: one month
Protocol: FIG. 12 is a graph illustrating the effects of fenobam treatment in Tg2576 mice. Tg2576 mice were fed placebo or fenobam-supplemented lab diet for one month prior to harvesting brains for ELISA assays. For chronic dosing, the diet was supplemented with 0.2 g fenobam per kg lab diet and colored red for visual differentiation with the placebo food. Whole brain homogenates from control and fenobam-treated mice were analyzed by ELISA for Aβ1-40 (left) and Aβ1-42 (right). Data were plotted as ng/mL Aβ per μg soluble brain lysate. […] The left bar in each group represents Aβ levels in mice fed with placebo food; and the right bar in each group represents Aβ levels in mice fed with fenobam-supplemented food.
as §1
After one month of chronic fenobam dosing, brain tissue was harvested and Aβ levels measured. Specifically assessed by ELISA were human (expressed from the APPSwe transgene) and mouse (endogenous) Aβ1-40 and Aβ1-42 levels.

rat mGluR7a = rat mGluR7a (Rattus norvegicus, UniProt P35400); settings: doses up to 10 μm; cited from earlier work
[4] = tested on: audiogenic seizures in mice; assay: Audiogenic seizure (AGS) testing; format: in vivo, mouse; settings: treated (immunized or Purina + drug)
rat mGluR1a = rat mGluR1a (Rattus norvegicus, UniProt P23385); settings: doses up to 10 μm; cited from earlier work
Chain of rat mGluR1a (P23385 19-1199): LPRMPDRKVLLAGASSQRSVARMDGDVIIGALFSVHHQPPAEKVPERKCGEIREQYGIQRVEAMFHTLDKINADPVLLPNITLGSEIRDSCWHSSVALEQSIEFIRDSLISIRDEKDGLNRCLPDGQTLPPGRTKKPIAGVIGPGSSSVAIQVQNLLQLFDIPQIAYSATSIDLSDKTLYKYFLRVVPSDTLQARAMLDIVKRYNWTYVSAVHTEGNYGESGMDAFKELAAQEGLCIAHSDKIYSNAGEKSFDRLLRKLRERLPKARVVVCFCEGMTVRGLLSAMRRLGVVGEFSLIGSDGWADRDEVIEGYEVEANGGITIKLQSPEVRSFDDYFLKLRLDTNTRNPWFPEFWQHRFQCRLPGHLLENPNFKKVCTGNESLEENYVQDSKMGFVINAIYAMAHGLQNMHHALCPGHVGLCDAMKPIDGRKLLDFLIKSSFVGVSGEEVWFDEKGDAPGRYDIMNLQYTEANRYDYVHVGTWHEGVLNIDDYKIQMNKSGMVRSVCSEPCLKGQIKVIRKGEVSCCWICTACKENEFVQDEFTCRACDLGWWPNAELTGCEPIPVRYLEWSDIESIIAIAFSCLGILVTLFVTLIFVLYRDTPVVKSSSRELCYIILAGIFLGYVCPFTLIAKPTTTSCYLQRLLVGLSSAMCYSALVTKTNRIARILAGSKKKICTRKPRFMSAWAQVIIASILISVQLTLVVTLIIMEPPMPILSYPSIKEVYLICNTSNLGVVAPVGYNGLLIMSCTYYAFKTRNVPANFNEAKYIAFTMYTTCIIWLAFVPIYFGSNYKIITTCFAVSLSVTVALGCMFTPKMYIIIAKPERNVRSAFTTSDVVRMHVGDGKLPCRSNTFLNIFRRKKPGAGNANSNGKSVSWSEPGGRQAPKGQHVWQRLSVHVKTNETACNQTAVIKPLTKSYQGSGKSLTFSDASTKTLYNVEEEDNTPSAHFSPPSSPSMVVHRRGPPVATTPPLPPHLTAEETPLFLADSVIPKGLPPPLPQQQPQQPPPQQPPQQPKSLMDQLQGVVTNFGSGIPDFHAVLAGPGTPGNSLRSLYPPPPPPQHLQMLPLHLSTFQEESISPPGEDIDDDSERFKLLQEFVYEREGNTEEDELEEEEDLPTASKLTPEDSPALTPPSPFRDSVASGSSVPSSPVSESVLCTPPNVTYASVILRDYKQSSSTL

rat mGluR4a = rat mGluR4a (Rattus norvegicus, UniProt P31423); settings: doses up to 10 μm; cited from earlier work
Chain of rat mGluR4a (P31423 33-912): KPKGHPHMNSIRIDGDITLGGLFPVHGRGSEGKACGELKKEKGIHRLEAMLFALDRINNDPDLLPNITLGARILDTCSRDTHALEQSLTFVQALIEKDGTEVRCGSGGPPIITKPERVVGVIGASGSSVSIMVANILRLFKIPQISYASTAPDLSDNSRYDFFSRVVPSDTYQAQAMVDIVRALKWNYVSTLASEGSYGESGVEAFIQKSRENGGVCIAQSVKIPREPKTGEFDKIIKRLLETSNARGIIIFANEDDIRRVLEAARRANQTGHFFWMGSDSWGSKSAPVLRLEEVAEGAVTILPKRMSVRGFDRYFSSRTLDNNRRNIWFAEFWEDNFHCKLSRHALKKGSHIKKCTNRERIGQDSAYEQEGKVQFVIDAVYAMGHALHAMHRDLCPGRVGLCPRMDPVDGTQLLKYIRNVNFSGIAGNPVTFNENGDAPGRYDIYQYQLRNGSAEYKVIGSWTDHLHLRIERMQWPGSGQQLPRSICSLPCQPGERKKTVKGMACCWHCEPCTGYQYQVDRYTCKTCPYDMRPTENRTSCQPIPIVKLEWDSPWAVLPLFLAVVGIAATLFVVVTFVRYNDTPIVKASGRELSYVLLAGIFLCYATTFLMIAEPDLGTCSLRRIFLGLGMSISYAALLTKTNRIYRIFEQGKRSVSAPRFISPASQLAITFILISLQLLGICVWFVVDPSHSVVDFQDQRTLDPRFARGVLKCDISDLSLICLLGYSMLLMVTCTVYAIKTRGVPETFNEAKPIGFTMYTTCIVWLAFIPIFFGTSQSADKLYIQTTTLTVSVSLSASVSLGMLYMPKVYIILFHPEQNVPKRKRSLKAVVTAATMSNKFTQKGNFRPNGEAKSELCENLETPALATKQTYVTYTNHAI

[5] = tested on: Aβ1-40 and Aβ1-42 in Fmr-1 KO mouse brain; assay: Brain region Aβ ELISA after fenobam-supplemented diet in Fmr-1 KO mice
Protocol: Fmr-1 KO mice were fed placebo or fenobam-supplemented lab diet for two months prior to harvesting brains for ELISA assays. Homogenates of hippocampus (H), cortex (Cx) and cerebellum (Cb) were analyzed by ELISA for Aβ1-40 and Aβ1-42. Data were plotted as a percentage of Aβ compared to levels in control mouse hippocampus. C: control, F: Fenobam.
Fmr-1 KO mice were fed placebo or fenobam-supplemented lab diet for one month prior to harvesting brains for ELISA assays. Homogenates of hippocampus (H), cortex (Cx) and cerebellum (Cb) were analyzed by ELISA for Aβ1-40 and Aβ1-42. Data were plotted as a percentage of Aβ compared to levels in control mouse hippocampus.

For COc1ccc(C[C@H]2NC[C@H](O)[C@H]2OC(C)=O)cc1 [anisomycin], the “effect on mGluR activation of APP translation” value (APP translation in SN) was “blocked”.

With CN1CC(=O)N=C1NC(=O)Nc1cccc(Cl)c1.O=S(=O)(O)O [fenobam] the premature death ([1]; Tg2576 mice, 0.2 g fenobam per kg diet, chronic dosing) was “no incidences of premature death”, the adverse side effects ([1]; mouse, in vivo) was “No adverse side effects” and the weight gain ([1]; mouse, in vivo) was “normal weight gain”. The “activity toward rat mGluR8a” value (rat mGluR8a) was “no activity”, the effect on anxiety (anxiety in humans) was “reduces anxiety” and the side effects ([2]; therapeutically-effective dosages) was “no harmful side effects”. The “side effects in one study (Friedmann et al., 1980)” value [2] was “psycho-stimulating properties”, the “activity toward rat mGluR2” value (rat mGluR2) was “no activity” and the effect on anxiety (anxiety in mice) was “reduces anxiety”. For the same compound, the effect on anxiety (anxiety in rats) was “reduces anxiety”, the mGluR5 antagonist character (mGluR5) was “potent and highly selective noncompetitive antagonists” and the “mouse Aβ1-42 levels” value ([3]; Tg2576, fenobam diet) was “no change”. The “mouse Aβ1-40 level in brain” value ([3]; Tg2576 males on fenobam food) was 60 ng/mL/µg, the “human Aβ levels, control vs fenobam-fed” value ([3]; Tg2576 mice, 0.2 g fenobam per kg diet) was “No change” and the “decrease in mouse Aβ1-40 levels” value ([3]; male Tg2576, 0.2 g fenobam per kg diet) was 11.5 fold. For the same compound, the “activity toward rat mGluR7a” value (rat mGluR7a) was “no activity”, the “% Death” value ([4]; DS (Ts65Dn) mice) was 0% and the “% WR” value ([4]; DS (Ts65Dn) mice) was 58%. The “% AGS” value ([4]; DS (Ts65Dn) mice, listed as Fenobaum) was 0%, the “% AGS” value ([4]; DS (Ts65Dn) mice, listed as fenobaum) was “attenuates seizures” and the “% AGS” value ([4]; WT littermates of DS model) was 0%. For the same compound, the “% Death” value ([4]; WT littermates of DS model) was 0%, the “% WR” value ([4]; WT littermates of DS model) was 0% and the “activity toward rat mGluR1a” value (rat mGluR1a) was “no activity”. For the same compound, the “activity toward rat mGluR4a” value (rat mGluR4a) was “no activity”, the “decrease in Aβ1-42 in the cortex” value ([5]; fenobam food 1 month) was 40% and the “Aβ1-42 in hippocampus and cortex” value ([5]; fenobam food 2 months) was “modest reductions”. For the same compound, the “decrease in Aβ1-40 in cerebellum” value ([5]; fenobam food 2 months) was 19%, the “decrease in Aβ1-40 in cortex” value ([5]; fenobam food 2 months) was 26% and the “reduction in Aβ1-42 in the cerebellum” value ([5]; fenobam food 2 months) was 4.2 fold.
